Values after ≈ are worked out from the molar mass of the structure shown. *1 amine or outer side, *2 acyl side, *3 side chain or, on linkers, in order; H or OH if unused. Where a SMILES comes first, the peptide text is derived from it. Bridges are numbered along the chain shown (N, C = ends). The star is where a group is joined. C20 diacid = O=C(O)CCCCCCCCCCCCCCCCCCC(=O)*; γGlu = O=C(O)[C@H](CCC(=O)[*:2])N[*:1]
What was measured:
[1] = Agonist activity at human AMY3R (CT+RAMP3) expressed in Hollex1 cells incubated for 3 hrs by luminescence assay; assay type: cell-based; conditions: Hollex1, 3 h
[2] = Agonist activity at human calcitonin receptor expressed in BHK570 cells assessed as increase in intracellular cAMP concentration incubated for 3 hrs in absence of albumin by CRE luciferase reporter gene assay; assay type: cell-based; conditions: BHK570, 3 h
Homo sapiens = species on record: Homo sapiens; assay: Ratio of EC50 for human calcitonin receptor expressed in BHK570 cells to EC50 for human AMY3R (CT+RAMP3) expressed in Hollex1 cells; assay type: cell-based
[3] = Agonist activity at rat AMY3R (CT+RAMP3) expressed in tk-ts13 cells assessed as increase in intracellular cAMP level incuabted for 25 mins by CRE luciferase reporter gene assay; assay type: cell-based; conditions: tk-ts13, 25 min
[4] = Agonist activity at rat calcitonin receptor expressed in BHK-13 cells assessed as increase in intracellular cAMP concentration incubated for 25 mins by CRE luciferase reporter gene assay; assay type: cell-based; conditions: BHK-13, 25 min
Rattus norvegicus [5] = species on record: Rattus norvegicus; assay: Ratio of EC50 for rat calcitonin receptor expressed in BHK-13 cells to EC50 for rat AMY3R (CT+RAMP3) expressed in tk-ts13 cells; assay type: cell-based
[6] = Displacement of [125I]-amylin from human AMY3R (CTR+RAMP3) expressed in BHK-13 cells measured after 120 mins by scintillation proximity assay; assay type: cell-based
[7] = Solubility of the compound in lactate at pH 3 by UPLC analysis; assay type: physicochemical; conditions: lactate buffer
[8] = Solubility of the compound in lactate at pH 4 by UPLC analysis; assay type: physicochemical; conditions: lactate buffer
[9] = Solubility of the compound in lactate at pH 5 by UPLC analysis; assay type: physicochemical; conditions: lactate buffer
[10] = Solubility of the compound in bis-tris propane at pH 6 by UPLC analysis; assay type: physicochemical; conditions: bis-tris propane buffer
[11] = Solubility of the compound in bis-tris propane at pH 8 by UPLC analysis; assay type: physicochemical; conditions: bis-tris propane buffer
Insulin (Homo sapiens) [12] = target: Insulin (Homo sapiens) (UniProt P01308); assay: Effect on insulin (unknown origin) amyloid fibril formation assessed as lag time in glycyl-glycine buffer at pH 4 measured after 45 hrs by thioflavin-T fluorescence assay
Insulin (Homo sapiens) [13] = target: Insulin (Homo sapiens) (UniProt P01308); assay: Effect on insulin (unknown origin) amyloid fibril formation assessed as peptide recovery in glycyl-glycine buffer at pH 4 measured after 45 hrs by thioflavin-T fluorescence assay relative to control; parameters: concentration or dose not given beside the values
Rattus norvegicus [14] = assay: Reduction in food intake in Sprague-Dawley rat at 30 nmol/kg, sc administered as single dose measured upto 24 hrs relative to control; assay type: functional; parameters: scale not given: the % may be the effect or the level left; conditions: time hrs <=24
Rattus norvegicus [15] = assay: Reduction in food intake in Sprague-Dawley rat at 30 nmol/kg, sc administered as single dose measured after 24 to 48 hrs relative to control; assay type: functional; parameters: scale not given: the % may be the effect or the level left; conditions: time 24-48 hrs
[16] = Solubility of the compound in bis-tris propane at pH 6.5 by UPLC analysis; assay type: physicochemical; conditions: bis-tris propane buffer
[17] = Solubility of the compound in bis-tris propane at pH 7 by UPLC analysis; assay type: physicochemical; conditions: bis-tris propane buffer

Chain of Insulin (Homo sapiens) (P01308 whole entry): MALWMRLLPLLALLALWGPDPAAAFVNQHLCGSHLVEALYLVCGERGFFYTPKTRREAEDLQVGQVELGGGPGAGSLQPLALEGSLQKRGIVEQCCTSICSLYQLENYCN

EC50 [1] [pM] | EC50 [2] [pM] | EC50 [3] [pM] | EC50 [4] [pM] | IC50 [6] [pM] | solubility [7] [µM] | solubility [8] [µM] | solubility [9] [µM] | solubility [10] [µM] | solubility [11] [µM] | TIME (Insulin (Homo sapiens) [12]) [h] | Activity (Insulin (Homo sapiens) [13]) [%] | solubility [16] [µM] | solubility [17] [µM] | Compound | Ratio EC50 (Homo sapiens) | Ratio EC50 (Rattus norvegicus [5]) | Activity (Rattus norvegicus [14]) [%] | Activity (Rattus norvegicus [15]) [%]
74 | 200 | 83 | 857 | 723 | 200 (≈ 948 µg/mL) | 200 (≈ 948 µg/mL) | 200 (≈ 948 µg/mL) | 200 (≈ 948 µg/mL) | 200 (≈ 948 µg/mL) | 7 | 3 | – | – | CC[C@H](C)[C@H](NC(=O)[C@@H]1CCCN1C(=O)CNC(=O)[C@H](Cc1ccccc1)NC(=O)[C@H](CC(N)=O)NC(=O)[C@H](CC(N)=O)NC(=O)[C@H](CO)NC(=O)[C@H](CO)NC(=O)[C@H](Cc1cnc[nH]1)NC(=O)[C@H](Cc1cnc[nH]1)NC(=O)[C@H](CC(C)C)NC(=O)[C@H](Cc1ccccc1)NC(=O)[C@H](CCC(=O)O)NC(=O)[C@H](C)NC(=O)[C@H](CC(C)C)NC(=O)[C@H](CCCNC(=N)N)NC(=O)[C@H](CCC(N)=O)NC(=O)[C@@H](NC(=O)[C@H](C)NC(=O)[C@@H]1CSSC[C@H](NC(=O)[C@H](Cc2cnc[nH]2)NC(=O)[C@H](Cc2cnc[nH]2)NC(=O)[C@H](Cc2cnc[nH]2)NC(=O)CC[C@H](NC(=O)CCCCCCCCCCCCCCCCCCC(=O)O)C(=O)O)C(=O)N[C@@H](CC(N)=O)C(=O)N[C@@H]([C@@H](C)O)C(=O)N[C@@H](C)C(=O)N[C@@H]([C@@H](C)O)C(=O)N1)[C@@H](C)O)C(=O)N[C@@H](CC(C)C)C(=O)N1CCC[C@H]1C(=O)N1CCC[C@H]1C(=O)N[C@H](C(=O)N[C@@H](CC(N)=O)C(=O)N[C@H](C(=O)NCC(=O)N[C@@H](CO)C(=O)N[C@@H](CC(N)=O)C(=O)N[C@H](C(=O)N[C@@H](Cc1ccc(O)cc1)C(N)=O)[C@@H](C)O)C(C)C)[C@@H](C)O ({C20 diacid-γGlu}-HHHCNTATCATQRLAEFLHHSSNNFGPILPPTNVGSNTY-NH2; disulfide 4-9) | 3 | 10 | 87 | 92
69 | 398 | 143 | 7090 | – | 200 (≈ 953 µg/mL) | 200 (≈ 953 µg/mL) | 200 (≈ 953 µg/mL) | 200 (≈ 953 µg/mL) | – | 10 | 10 | 117 (≈ 558 µg/mL) | 1 (≈ 4.77 µg/mL) | CC[C@H](C)[C@H](NC(=O)[C@@H]1CCCN1C(=O)CNC(=O)[C@H](Cc1ccccc1)NC(=O)[C@H](CC(N)=O)NC(=O)[C@H](CC(N)=O)NC(=O)[C@H](CO)NC(=O)[C@H](CO)NC(=O)[C@H](Cc1cnc[nH]1)NC(=O)[C@H](Cc1cnc[nH]1)NC(=O)[C@H](CC(C)C)NC(=O)[C@H](Cc1ccccc1)NC(=O)[C@H](CCCNC(=N)N)NC(=O)[C@H](C)NC(=O)[C@H](CC(C)C)NC(=O)[C@H](CCCNC(=N)N)NC(=O)[C@H](CCC(N)=O)NC(=O)[C@@H](NC(=O)[C@H](C)NC(=O)[C@@H]1CSSC[C@H](NC(=O)[C@H](Cc2cnc[nH]2)NC(=O)[C@H](Cc2cnc[nH]2)NC(=O)[C@H](Cc2cnc[nH]2)NC(=O)CC[C@H](NC(=O)CCCCCCCCCCCCCCCCCCC(=O)O)C(=O)O)C(=O)N[C@@H](CC(N)=O)C(=O)N[C@@H]([C@@H](C)O)C(=O)N[C@@H](C)C(=O)N[C@@H]([C@@H](C)O)C(=O)N1)[C@@H](C)O)C(=O)N[C@@H](CC(C)C)C(=O)N1CCC[C@H]1C(=O)N1CCC[C@H]1C(=O)N[C@H](C(=O)N[C@@H](CC(N)=O)C(=O)N[C@H](C(=O)NCC(=O)N[C@@H](CO)C(=O)N[C@@H](CC(N)=O)C(=O)N[C@H](C(=O)N[C@@H](Cc1ccc(O)cc1)C(N)=O)[C@@H](C)O)C(C)C)[C@@H](C)O ({C20 diacid-γGlu}-HHHCNTATCATQRLARFLHHSSNNFGPILPPTNVGSNTY-NH2; disulfide 4-9) | 6 | 50 | 65 | 25
